Test results: PubChem BioAssay (NCI)
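Exposure lasted 48 hours, with cells grown in 96-well plates and compounds tested at five concentrations. At the GI50, growth is halved. TGI marks complete inhibition of growth.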

Tests used:
Experiment in all cases: inhibition of tumour cell growth, NCI panel, 48 h
EKVX NSCLC = tested on: EKVX NSCLC
BT-549 breast = tested on: BT-549 breast
SNB-19 CNS = tested on: SNB-19 CNS
HCT-15 colon = tested on: HCT-15 colon
LXFL 529 NSCLC = tested on: LXFL 529 NSCLC
KM20L2 colon = tested on: KM20L2 colon
DMS 114 small cell lung = tested on: DMS 114 small cell lung
HOP-18 NSCLC = tested on: HOP-18 NSCLC
DLD-1 colon = tested on: DLD-1 colon

Row | SMILES | GI50 (EKVX NSCLC) | TGI (EKVX NSCLC) | GI50 (BT-549 breast) | TGI (BT-549 breast) | GI50 (SNB-19 CNS) | TGI (SNB-19 CNS) | GI50 (HCT-15 colon) | TGI (HCT-15 colon) | TGI (LXFL 529 NSCLC) | TGI (KM20L2 colon) | TGI (DMS 114 small cell lung) | TGI (HOP-18 NSCLC) | TGI (DLD-1 colon)
1 | CCC(Sc1nnc2c3ccccc3n(CC)c2n1)C(=O)Nc1ccccc1OC (configuration not stated) | 1.08 µM | > 30.1 µM | > 100 µM | > 100 µM | > 100 µM | > 100 µM | 66.8 µM | > 100 µM | – | – | – | – | –
2 | CN1CCN(c2ccc3c4c(cccc24)C(=O)N(CCN2CCN(CCCN4CCN(CCN5C(=O)c6cccc7c(N8CCN(C)CC8)ccc(c67)C5=O)CC4)CC2)C3=O)CC1 | 8.16 µM | 17.3 µM | 9.92 µM | 19.7 µM | 7.03 µM | 16.2 µM | 4.08 µM | 11.3 µM | – | – | – | – | –
3 | Cn1c(=O)cc2c3c(c(NCCCO)ccc31)C(=O)c1ccccc1-2 | 5.23 µM | > 100 µM | 6.67 µM | > 100 µM | 4.46 µM | > 100 µM | 3.86 µM | > 100 µM | – | – | – | – | –
4 | COc1cnc2c(c1)C(=O)c1c-2n(CCCn2ccnc2)c(=O)c2cc(Cl)ccc12 | 0.251 µM | > 100 µM | 0.146 µM | > 100 µM | 0.0321 µM | > 100 µM | 0.159 µM | > 100 µM | – | – | – | – | –
5 | CCC[C@H](N[C@@H]1CCc2cc(F)cc(F)c2C1)C(=O)Nc1cn(C(C)(C)CNCC(C)(C)C)cn1 | 21 µM | > 100 µM | 11.5 µM | 37.8 µM | 26.6 µM | > 94.6 µM | 15.7 µM | 75.2 µM | – | – | – | – | –
6 | O=[N+]([O-])c1ccccc1N=Nc1c(O)[nH]c2ccccc12 | – | 97.6 µM | – | > 100 µM | – | > 100 µM | – | > 100 µM | – | – | – | – | –
7 | CC(C)=CCc1c(O)cc(/C=C/c2cc(O)c3c(c2)C[C@@H]2C(C)(C)[C@H](O)[C@H](O)C[C@@]2(C)O3)cc1O | 0.789 µM | 4.49 µM | 0.0553 µM | > 7.23 µM | 1.46 µM | > 10 µM | 1.28 µM | > 10 µM | – | – | – | – | –
8 | CO[C@@H]1[C@@H](OC2OC(C)C(OC3CC(C)(O)C(OC(=O)CC(C)C)C(C)O3)C(N(C)C)C2O)[C@@H](CC=O)C[C@@H](C)C(=O)/C=C/C2O[C@H]2C[C@@H](C)OC(=O)C[C@H]1OC(C)=O (some centres not stated) | – | > 100 µM | – | 40.5 µM | – | 60.1 µM | – | 36 µM | – | – | – | – | –
9 | CCc1c2c(nc3cc4c(cc13)OCO4)-c1cc3c(c(=O)n1C2)COC(=O)[C@@]3(CC)OC(=O)CN | 0.0321 µM | > 100 µM | < 0.01 µM | < 0.0366 µM | < 0.01 µM | – | 0.0236 µM | > 100 µM | – | – | – | – | –
10 | CCCCCCCCCCCC(=O)OCC1OC(n2cc(F)c(=O)[nH]c2=O)C(N)C(OC(=O)CCCCCCCCCCC)C1O (configuration not stated) | – | > 100 µM | – | – | – | > 100 µM | – | > 100 µM | > 100 µM | > 100 µM | > 100 µM | – | –
11 | N#Cc1ccccc1C#C/C=C\C#Cc1ccc(OCCCNC(=O)c2cc3ccccc3[nH]2)cc1 | 17.1 µM | 96.6 µM | 20.2 µM | > 100 µM | 16.5 µM | 39.7 µM | 26.2 µM | > 100 µM | – | – | – | – | –
12 | CC(=O)O[C@@H]1CO[C@H]2O[C@H]3[C@@H](C(C=O)=C[C@H](O)[C@@H]4C5=C(C(C)C)CC[C@]5(C)CC[C@@]34C)[C@@]2(O)C1=O | – | 1.28 µM | – | 0.353 µM | – | 1.97 µM | – | 0.687 µM | – | – | – | – | –
13 | CN1C(=O)CNC(=O)[C@H](NC(=O)c2nc3ccccc3cc2O)CSSC[C@H]1C(=O)NCCc1nc2ccccc2cc1O | 11 µM | > 61.4 µM | 14.3 µM | 51.7 µM | 33.5 µM | > 100 µM | 20.7 µM | > 62.5 µM | – | – | – | – | –
14 | O=C(Nc1cc(C(F)(F)F)ccc1F)Nc1n[nH]c2ccccc12 | > 100 µM | > 100 µM | > 100 µM | > 100 µM | > 100 µM | > 100 µM | > 100 µM | > 100 µM | – | – | – | – | –
15 | O=C(Nc1ccc(Br)cc1)Nc1n[nH]c2ccccc12 | > 100 µM | > 100 µM | > 100 µM | > 100 µM | > 100 µM | > 100 µM | 17.3 µM | > 100 µM | – | – | – | – | –
16 | CN1CCN(c2ccc3nc(-c4cc(C(C)(C)C)c(O)c(C(C)(C)C)c4)[nH]c3c2)CC1 | 4.3 µM | 16.5 µM | 2.23 µM | 6.43 µM | 3.29 µM | 12.4 µM | 1.71 µM | 3.49 µM | – | – | – | – | –
17 | Nc1cc(-c2ccccc2)ccc1O | 82.2 µM | > 100 µM | 79.3 µM | > 100 µM | > 100 µM | > 100 µM | 68.7 µM | > 100 µM | – | – | – | – | –
18 | CC(=O)OC1CC2CCC1(C)C2(C)C (configuration not stated) | – | – | – | – | – | > 100 µM | – | > 100 µM | – | – | – | – | –
19 | CC(=O)OC1COC(S[As](C)C)C(OC(C)=O)C1OC(C)=O (configuration not stated) | 2.07 µM | 17.1 µM | 0.755 µM | 6.22 µM | 14.7 µM | 49.5 µM | 0.191 µM | 1.36 µM | – | – | – | – | –
20 | CS(=O)(=O)CCNCc1ccc(-c2ccc3ncnc(Nc4ccc(OCc5cccc(C(F)(F)F)c5)cc4)c3c2)o1 | 6.03 µM | > 23.3 µM | 9.57 µM | > 21.8 µM | 11.3 µM | > 25 µM | 4.71 µM | 10.6 µM | – | – | – | – | –
21 | COc1cc(CSc2nc3ccc(C)cc3c(=O)n2Cc2ccccc2)cc(OC)c1OC | – | – | 7.07 µM | 77.5 µM | 5.93 µM | > 100 µM | 0.773 µM | > 100 µM | – | – | – | – | –
22 | COC(=O)CCC(=O)c1c(C)[nH]c(/C=C2\N=C(c3ccc[nH]3)C=C2OC)c1C | 1.1 µM | 2.94 µM | 0.587 µM | 2.17 µM | 3.2 µM | 14.2 µM | 0.292 µM | 1.89 µM | – | – | – | – | –
23 | C=CC1CC12C(=O)C1OC2(C)C2C(=O)c3c(ccc4c3ccc3ccccc34)C(=O)C12 (configuration not stated) | 78.6 µM | > 100 µM | 58.9 µM | > 100 µM | > 100 µM | > 100 µM | 14.2 µM | 80.6 µM | – | – | – | – | –
24 | COCCOC(=O)C1=C(C)NC2=C(C(=O)CC(c3ccccc3OC)C2)C1c1cccc(O)c1 (configuration not stated) | 14.4 µM | > 100 µM | 11.7 µM | 37.5 µM | 16 µM | > 100 µM | 19.8 µM | > 61.9 µM | – | – | – | – | –
25 | Cc1c(C(=O)/C=C/c2ccc(Cl)cc2)[n+](=O)c2ccccc2n1[O-] | – | 31.2 µM | – | – | – | 27.8 µM | – | 24.1 µM | 22.5 µM | 21.4 µM | 15.1 µM | 57.7 µM | 20.4 µM
